Where “and” joins values, the source holds several entries; their conditions need not be identical. Equal entries are not always repeated. Results filed as inconclusive are left out.
Tested on: BDF1 mice, s.c. Lewis lung carcinoma, T/C %
Assay: NCI In Vivo Anticancer Drug Screen. Data for tumor model Lewis Lung Carcinoma (subcutaneous) in B6D2F1 (BDF1) mice
Outline: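 First, mice carry a transplantable tumor. Next, groups receive either compound or vehicle. Finally, survival or tumor dimensions in the dosed animals are divided by the corresponding control figure.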

[1] = endpoint: mean tumor weight, dose: 25.0 mg/kg/injection, schedule: Q01DX011 (ip), vehicle: water, higher = larger tumour
[2] = endpoint: mean tumor weight, dose: 100.0 mg/kg/injection, schedule: Q01DX011 (ip), vehicle: water, higher = larger tumour
[3] = endpoint: median survival time, dose: 3.12 mg/kg/injection, schedule: Q01DX009 (ip), vehicle: Klucel (hydroxypropylcellulose) (HPC), higher = longer survival
[4] = endpoint: median survival time, dose: 6.25 mg/kg/injection, schedule: Q01DX009 (ip), vehicle: Klucel (hydroxypropylcellulose) (HPC), higher = longer survival
[5] = endpoint: median survival time, dose: 25.0 mg/kg/injection, schedule: Q01DX009 (ip), vehicle: Klucel (hydroxypropylcellulose) (HPC), higher = longer survival
[6] = endpoint: mean tumor weight, dose: 100.0 mg/kg/injection, schedule: Q01DX011 (ip), vehicle: carboxymethylcellulose (CMC), higher = larger tumour
[7] = endpoint: mean tumor weight, dose: 25.0 mg/kg/injection, schedule: Q01DX011 (ip), vehicle: other, higher = larger tumour
[8] = endpoint: mean tumor weight, dose: 50.0 mg/kg/injection, schedule: Q01DX011 (ip), vehicle: other, higher = larger tumour
[9] = endpoint: mean tumor weight, dose: 25.0 mg/kg/injection, schedule: Q01DX011 (ip), vehicle: saline, higher = larger tumour
[10] = endpoint: mean tumor weight, dose: 50.0 mg/kg/injection, schedule: Q01DX011 (ip), vehicle: saline, higher = larger tumour
[11] = endpoint: mean tumor weight, dose: 100.0 mg/kg/injection, schedule: Q01DX011 (ip), vehicle: saline, higher = larger tumour

CC[C@H](CC[C@@H](C)[C@H]1CC[C@H]2[C@@H]3CC=C4C[C@@H](O)CC[C@]4(C)[C@H]3CC[C@]12C)C(C)C
T/C (endpoint: mean tumor weight, dose: 15.0 mg/kg/injection, schedule: Q01DX011 (ip), vehicle: water, higher = larger tumour): 72 % of control | T/C [1]: 74 % of control | T/C (endpoint: mean tumor weight, dose: 40.0 mg/kg/injection, schedule: Q01DX011 (ip), vehicle: water, higher = larger tumour): 47 % of control | T/C [2]: 47 % of control | T/C (endpoint: mean tumor weight, dose: 150.0 mg/kg/injection, schedule: Q01DX011 (ip), vehicle: water, higher = larger tumour): 32 % of control | T/C (endpoint: mean tumor weight, dose: 225.0 mg/kg/injection, schedule: Q01DX011 (ip), vehicle: water, higher = larger tumour): 11 % of control

CCCCCC(CN(C)C)C(O)/C=C/c1ccccc1Cl (stereo not given)
T/C (endpoint: median survival time, dose: 3.12 mg/kg/injection, schedule: Q01DX009 (ip), vehicle: saline, higher = longer survival): 99 % of control | T/C (endpoint: median survival time, dose: 6.25 mg/kg/injection, schedule: Q01DX009 (ip), vehicle: saline, higher = longer survival): 95 % of control | T/C (endpoint: median survival time, dose: 12.5 mg/kg/injection, schedule: Q01DX009 (ip), vehicle: saline, higher = longer survival): 92 % of control | T/C (endpoint: median survival time, dose: 25.0 mg/kg/injection, schedule: Q01DX009 (ip), vehicle: saline, higher = longer survival): 99 % of control | T/C (endpoint: median survival time, dose: 50.0 mg/kg/injection, schedule: Q01DX009 (ip), vehicle: saline, higher = longer survival): 108 % of control

CCCCCC/C=C/[N+]([O-])=NC(COC)C(C)O (stereo not given)
T/C (endpoint: mean tumor weight, dose: 5.0 mg/kg/injection, schedule: Q01DX011 (ip), vehicle: carboxymethylcellulose (CMC), higher = larger tumour): 84 % of control | T/C (endpoint: mean tumor weight, dose: 10.0 mg/kg/injection, schedule: Q01DX011 (ip), vehicle: carboxymethylcellulose (CMC), higher = larger tumour): 96 % of control

Cc1cc(N(CC(C)Br)CC(C)Br)ccc1N=Nc1ccccc1C(=O)O (stereo not given)
T/C (endpoint: median survival time, dose: 3.12 mg/kg/injection, schedule: Q01DX009 (ip), vehicle: saline with Tween-80, higher = longer survival): 108 % of control | T/C (endpoint: median survival time, dose: 6.25 mg/kg/injection, schedule: Q01DX009 (ip), vehicle: saline with Tween-80, higher = longer survival): 95 % of control and 102 % of control

Nc1nc2[nH]c(=O)cnc2c(=O)[nH]1
T/C (endpoint: median survival time, dose: 12.5 mg/kg/injection, schedule: Q01DX009 (ip), vehicle: saline with Tween-80, higher = longer survival): 97 % of control | T/C (endpoint: median survival time, dose: 50.0 mg/kg/injection, schedule: Q01DX009 (ip), vehicle: saline with Tween-80, higher = longer survival): 99 % of control | T/C (endpoint: median survival time, dose: 100.0 mg/kg/injection, schedule: Q01DX009 (ip), vehicle: saline, higher = longer survival): 104 % of control | T/C (endpoint: median survival time, dose: 200.0 mg/kg/injection, schedule: Q01DX009 (ip), vehicle: saline, higher = longer survival): 104 % of control | T/C (endpoint: median survival time, dose: 400.0 mg/kg/injection, schedule: Q01DX009 (ip), vehicle: saline, higher = longer survival): 110 % of control

CC[C@@H](C(=O)[C@@H](C)[C@@H](O)[C@H](C)CCc1ccc(C)c(O)c1C(=O)O)[C@H]1O[C@](CC)([C@H]2CC[C@](O)(CC)[C@H](C)O2)C[C@@H]1C
T/C (endpoint: median survival time, dose: 0.78 mg/kg/injection, schedule: Q01DX009 (ip), vehicle: Klucel (hydroxypropylcellulose) (HPC), higher = longer survival): 113 % of control | T/C (endpoint: median survival time, dose: 1.56 mg/kg/injection, schedule: Q01DX009 (ip), vehicle: Klucel (hydroxypropylcellulose) (HPC), higher = longer survival): 111 % of control | T/C [3]: 93 % of control | T/C [4]: 96 % of control | T/C [5]: 96 % of control

C=C1C(=O)OC2C1CCC(C)C1CCC(=O)OC12C (stereo not given)
T/C (endpoint: median survival time, dose: 1.6 mg/kg/injection, schedule: Q01DX009 (ip), vehicle: Klucel (hydroxypropylcellulose) (HPC), higher = longer survival): 95 % of control | T/C [3]: 102 % of control | T/C (endpoint: median survival time, dose: 3.13 mg/kg/injection, schedule: Q01DX009 (ip), vehicle: Klucel (hydroxypropylcellulose) (HPC), higher = longer survival): 104 % of control | T/C [4]: 102 % of control | T/C (endpoint: median survival time, dose: 12.5 mg/kg/injection, schedule: Q01DX009 (ip), vehicle: Klucel (hydroxypropylcellulose) (HPC), higher = longer survival): 106 % of control | T/C [5]: 92 % of control

CNCc1ccccc1
T/C (endpoint: mean tumor weight, dose: 25.0 mg/kg/injection, schedule: Q01DX011 (ip), vehicle: carboxymethylcellulose (CMC), higher = larger tumour): 105 % of control | T/C (endpoint: mean tumor weight, dose: 50.0 mg/kg/injection, schedule: Q01DX011 (ip), vehicle: carboxymethylcellulose (CMC), higher = larger tumour): 124 % of control | T/C [6]: 65 % of control

Clc1cccc(Br)c1
T/C [7]: 95 % of control | T/C [8]: 81 % of control | T/C (endpoint: mean tumor weight, dose: 100.0 mg/kg/injection, schedule: Q01DX011 (ip), vehicle: other, higher = larger tumour): 58 % of control | T/C (endpoint: mean tumor weight, dose: 200.0 mg/kg/injection, schedule: Q01DX011 (ip), vehicle: other, higher = larger tumour): 30 % of control

O=C(O)O.[Cd]
T/C (endpoint: mean tumor weight, dose: 0.5 mg/kg/injection, schedule: Q01DX011 (ip), vehicle: carboxymethylcellulose (CMC), higher = larger tumour): 72 % of control

Nc1nc(SCc2ccccc2Cl)c2ncn(C3OC(CO)C(O)C3O)c2n1 (stereo not given)
T/C (endpoint: mean tumor weight, dose: 6.3 mg/kg/injection, schedule: Q01DX011 (ip), vehicle: other, higher = larger tumour): 56 % of control | T/C (endpoint: mean tumor weight, dose: 12.5 mg/kg/injection, schedule: Q01DX011 (ip), vehicle: other, higher = larger tumour): 55 % of control | T/C [7]: 49 % of control | T/C [8]: 28 % of control

NC(=O)NO
T/C (endpoint: mean tumor weight (est.), dose: 100.0 mg/kg/injection, schedule: Q01DX009 (ip), vehicle: water, higher = larger tumour): 66 % of control | T/C (endpoint: mean tumor weight (est.), dose: 200.0 mg/kg/injection, schedule: Q01DX009 (ip), vehicle: water, higher = larger tumour): 28 % of control | T/C (endpoint: mean tumor weight (est.), dose: 400.0 mg/kg/injection, schedule: Q01DX009 (ip), vehicle: water, higher = larger tumour): 33 % of control | T/C [9]: 58 % of control | T/C [10]: 90 % of control | T/C [11]: 89 % of control | T/C (endpoint: mean tumor weight, dose: 200.0 mg/kg/injection, schedule: Q01DX011 (ip), vehicle: saline, higher = larger tumour): 31 % of control | T/C (endpoint: median survival time, dose: 2.5 mg/kg/injection, schedule: Q08HX024 (ip), vehicle: saline, higher = longer survival): 92 % of control | T/C (endpoint: median survival time, dose: 10.0 mg/kg/injection, schedule: Q08HX024 (ip), vehicle: Klucel (hydroxypropylcellulose) (HPC), higher = longer survival): 181 % of control | T/C (endpoint: median survival time, dose: 20.0 mg/kg/injection, schedule: Q08HX024 (ip), vehicle: Klucel (hydroxypropylcellulose) (HPC), higher = longer survival): 181 % of control | T/C (endpoint: median survival time, dose: 40.0 mg/kg/injection, schedule: Q08HX024 (ip), vehicle: Klucel (hydroxypropylcellulose) (HPC), higher = longer survival): 95 % of control | T/C (endpoint: median survival time, dose: 40.0 mg/kg/injection, schedule: Q08HX024 (ip), vehicle: saline, higher = longer survival): 90 % of control | T/C (endpoint: median survival time, dose: 97.0 mg/kg/injection, schedule: Q01DX009 (ip), vehicle: saline, higher = longer survival): 119 % of control | T/C (endpoint: median survival time, dose: 100.0 mg/kg/injection, schedule: Q01DX009 (ip), vehicle: water, higher = longer survival): 94 % of control | T/C (endpoint: median survival time, dose: 200.0 mg/kg/injection, schedule: Q01DX009 (ip), vehicle: water, higher = longer survival): 100 % of control | T/C (endpoint: median survival time, dose: 1250.0 mg/kg/injection, schedule: Q01DX009 (ip), vehicle: saline, higher = longer survival): 56 % of control

COC(=O)C[C@](O)(CCC(C)(C)O)C(=O)O[C@@H]1C(OC)=C[C@]23CCCN2CCc2cc4c(cc2[C@H]13)OCO4
T/C (endpoint: mean tumor weight, dose: 0.25 mg/kg/injection, schedule: Q01DX011 (ip), vehicle: saline, higher = larger tumour): 71 % of control | T/C (endpoint: mean tumor weight, dose: 0.5 mg/kg/injection, schedule: Q01DX011 (ip), vehicle: saline, higher = larger tumour): 85 % of control | T/C (endpoint: mean tumor weight, dose: 2.0 mg/kg/injection, schedule: Q01DX011 (ip), vehicle: saline, higher = larger tumour): 68 % of control

NC(=O)n1cccn1
T/C [9]: 76 % of control | T/C [1]: 88 % of control | T/C [10]: 61 % of control | T/C (endpoint: mean tumor weight, dose: 50.0 mg/kg/injection, schedule: Q01DX011 (ip), vehicle: water, higher = larger tumour): 61 % of control | T/C [11]: 49 % of control | T/C [2]: 39 % of control

COCC(O)Cn1ccnc1[N+](=O)[O-] (stereo not given)
T/C (endpoint: median survival time, dose: 500.0 mg/kg/injection, schedule: Q01DX001 (ip), vehicle: saline, higher = longer survival): 81 % of control | T/C (endpoint: median survival time, dose: 600.0 mg/kg/injection, schedule: Q01DX001 (ip), vehicle: saline, higher = longer survival): 77 % of control and 93 % of control | T/C (endpoint: median survival time, dose: 1000.0 mg/kg/injection, schedule: Q01DX001 (ip), vehicle: saline, higher = longer survival): 74 % of control and 91 % of control and 94 % of control

COc1ccc(/C=C/c2ccc3ccccc3[n+]2C)c(OC)c1OC
T/C (endpoint: median survival time, dose: 0.31 mg/kg/injection, schedule: Q01DX009 (ip), vehicle: Klucel (hydroxypropylcellulose) (HPC), higher = longer survival): 117 % of control | T/C (endpoint: median survival time, dose: 0.62 mg/kg/injection, schedule: Q01DX009 (ip), vehicle: Klucel (hydroxypropylcellulose) (HPC), higher = longer survival): 108 % of control | T/C (endpoint: median survival time, dose: 1.25 mg/kg/injection, schedule: Q01DX009 (ip), vehicle: Klucel (hydroxypropylcellulose) (HPC), higher = longer survival): 107 % of control | T/C (endpoint: median survival time, dose: 2.5 mg/kg/injection, schedule: Q01DX009 (ip), vehicle: Klucel (hydroxypropylcellulose) (HPC), higher = longer survival): 89 % of control and 92 % of control

O=S(=O)(O)O.[NH-]CC1(C[NH-])CCCCC1.[Pt+2]
T/C (endpoint: median survival time, dose: 6.0 mg/kg/injection, schedule: Q04DX003 (ip), vehicle: other, higher = longer survival): 100 % of control

CC(C)=CCCC(C)CCO (stereo not given)
T/C [6]: 72 % of control

CC1(C)OCC(CO)(Nc2nc(N3CC3)nc(N3CC3)n2)CO1
T/C (endpoint: median survival time, dose: 0.62 mg/kg/injection, schedule: Q01DX009 (ip), vehicle: saline, higher = longer survival): 100 % of control and 119 % of control | T/C (endpoint: median survival time, dose: 1.25 mg/kg/injection, schedule: Q01DX009 (ip), vehicle: saline, higher = longer survival): 115 % of control and 116 % of control | T/C (endpoint: median survival time, dose: 2.5 mg/kg/injection, schedule: Q01DX009 (ip), vehicle: saline, higher = longer survival): 112 % of control
